Test results as given in US8598122B2, “Antagonistic peptides for frizzled-1 and frizzled-2” (Universiteit Maastricht, priority 2009, dated 2013).
“Also recorded” adds a separate entry of the source. Where a SMILES comes first, the peptide text is derived from it.

Experiments:
[1] = biological target: T1, hFzd-5 (Homo sapiens, UniProt Q13467); test: Luciferase activity in HEK293 superTOPflash cells overexpressing hFzd-5; format: cell-based; conditions: 1.10^−8 M
T1 construct: expressed in transfected cells; host or cells: HEK293 superTOPflash, transient, pcDNA3.0
T1 sequence (Q13467 27-585): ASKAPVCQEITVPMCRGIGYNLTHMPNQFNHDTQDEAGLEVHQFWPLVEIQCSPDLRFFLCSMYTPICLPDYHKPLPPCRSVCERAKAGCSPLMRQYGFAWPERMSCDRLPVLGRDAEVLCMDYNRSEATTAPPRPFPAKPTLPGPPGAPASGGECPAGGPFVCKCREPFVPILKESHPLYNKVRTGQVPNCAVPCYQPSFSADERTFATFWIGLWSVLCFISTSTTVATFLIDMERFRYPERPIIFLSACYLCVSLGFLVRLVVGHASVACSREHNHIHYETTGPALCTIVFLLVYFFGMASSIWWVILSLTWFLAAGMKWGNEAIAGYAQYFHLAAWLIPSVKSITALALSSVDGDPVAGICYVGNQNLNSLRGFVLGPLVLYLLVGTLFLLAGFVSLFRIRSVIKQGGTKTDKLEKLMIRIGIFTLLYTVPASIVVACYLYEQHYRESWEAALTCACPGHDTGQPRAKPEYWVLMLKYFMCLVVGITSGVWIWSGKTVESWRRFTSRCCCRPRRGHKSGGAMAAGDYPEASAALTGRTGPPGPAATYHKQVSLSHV
Protocol: (§1) In FIG. 3, Panel E, the efficacy of UM206 to block the Wnt3a-induced activation of luciferase activity in HEK293 superTOPflash cells transfected with different Fzds is shown.
The cell lines were cultured in 75 cm^2 culture flasks (Corning, Schiphol, the Netherlands) in Dulbeco's modified essential medium with L-glutamine (2 mM), 10% fetal calf serum (Invitrogen, Merelbeke, Belgium), and 1% gentamycin (Sigma-Aldrich, Zwijndrecht, The Netherlands). Before starting the experiment, the cell lines were treated with plasmocin 25 μg/ml (Invivogen, Toulose, France) and tested with a mycoalert mycoplasma detection kit (Lonza, Rockland Me., USA). Cells were transiently transfected with Fugene6 (Roche, Indianapolis Ind., USA) with plasmid DNA, pcDNA3.1/hygro (Invitrogen) with frizzled-1/2/4 or Wnts 3a-5a or with pcDNA3.0 (Invitrogen) containing the β-catenin or frizzled-5 sequence. After transfection, the cells were cultured for 24 hours in conditioned medium, collected from the cultured L-cells, L-cells with Wnt3a or 5a (Invitrogen). At the same moment the antagonist was added.

[2] = biological target: T2, mouse Fzd-1 (Mus musculus, UniProt O70421); test: Antagonism of Wnt3a activation of mouse Fzd-1 (data not shown); format: cell-based
T2 construct: expressed in transfected cells
T2 sequence (O70421 69-642): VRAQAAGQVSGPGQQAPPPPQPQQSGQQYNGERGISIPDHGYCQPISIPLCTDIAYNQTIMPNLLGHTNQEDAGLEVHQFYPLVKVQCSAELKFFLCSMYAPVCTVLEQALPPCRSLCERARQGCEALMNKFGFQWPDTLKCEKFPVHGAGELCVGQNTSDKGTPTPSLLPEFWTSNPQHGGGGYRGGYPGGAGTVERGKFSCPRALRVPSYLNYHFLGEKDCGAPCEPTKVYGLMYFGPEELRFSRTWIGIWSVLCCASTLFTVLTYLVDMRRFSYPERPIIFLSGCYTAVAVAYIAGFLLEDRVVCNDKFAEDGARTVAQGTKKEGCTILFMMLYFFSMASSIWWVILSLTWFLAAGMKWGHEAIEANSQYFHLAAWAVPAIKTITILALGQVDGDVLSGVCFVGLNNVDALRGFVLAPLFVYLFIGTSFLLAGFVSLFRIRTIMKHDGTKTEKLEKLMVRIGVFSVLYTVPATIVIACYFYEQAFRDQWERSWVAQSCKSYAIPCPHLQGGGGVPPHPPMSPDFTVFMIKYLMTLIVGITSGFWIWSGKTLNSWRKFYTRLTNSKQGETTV
Excerpt: as §1

[3] = biological target: T3, mouse Fzd-2 (Mus musculus, UniProt Q9JIP6); test: Antagonism of Wnt3a activation of mouse Fzd-2 (data not shown); format: cell-based
T3 construct: expressed in transfected cells
T3 sequence (Q9JIP6 29-570): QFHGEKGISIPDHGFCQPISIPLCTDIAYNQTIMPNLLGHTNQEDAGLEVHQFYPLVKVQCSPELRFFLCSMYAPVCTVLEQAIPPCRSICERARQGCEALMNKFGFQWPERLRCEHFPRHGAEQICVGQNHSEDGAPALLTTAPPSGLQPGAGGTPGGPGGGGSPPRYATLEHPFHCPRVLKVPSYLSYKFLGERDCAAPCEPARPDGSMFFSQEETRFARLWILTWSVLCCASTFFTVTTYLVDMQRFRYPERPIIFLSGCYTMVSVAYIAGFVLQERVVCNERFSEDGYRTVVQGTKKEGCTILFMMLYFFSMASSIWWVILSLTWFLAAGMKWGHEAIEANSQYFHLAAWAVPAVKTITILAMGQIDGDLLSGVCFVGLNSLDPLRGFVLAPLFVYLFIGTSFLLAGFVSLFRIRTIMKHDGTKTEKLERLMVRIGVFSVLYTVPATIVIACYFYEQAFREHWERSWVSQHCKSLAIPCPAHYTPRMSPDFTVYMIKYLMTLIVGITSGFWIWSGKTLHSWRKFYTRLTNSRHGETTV
Excerpt: as §1

[4] = tested on: canonical Wnt/Fzd-1/2 signaling; test: TOPflash experiments in CHO and COS-7 cells overexpressing rFzd-1 or -2; format: cell-based
Excerpt: Three areas of high homology that contained two cysteines are underlined (UM207), (UM208) and (UM206). In FIGS. 9B through 9D, the inhibitory effect of these three peptides on Wnt3a-induced luciferase activity in HEK293-superTOPflash is shown. […] Again, the peptides by themselves had no effect on the luciferase activity.
For the luciferase experiments not in HEK cells, the cells were additionally transfected with a TOPflash construct, eight TCF/LEF binding sites cloned into the pTA-Luc vector. Luciferase activity was measured using luciferase assay system (Promega, Madison Wis., USA).

[5] = Pharmacokinetics in rats; format: in vivo
[6] = tested on: mice with myocardial infarction; test: Myocardial infarction model in mice, UM206 by osmotic minipump; format: in vivo
Protocol: All animals were subjected to extensive echocardiography studies for the assessment of myocardial infarct size, LV cavity dimensions and ventricular function. Echocardiography examination was performed under 2% isofluorane. Echocardiograms were recorded with Philips Sonos 5500 ultrasound system (Philips, Eindhoven, the Netherlands) using a 20-MHz linear probe.
The animals were anaesthetized with urethane ([…] body weight, i.p., Sigma-Aldrich) followed by intubation and connected to a rodent ventilator (Hugo Sachs, March-Hugstetten, Germany). Body temperature was maintained at 37° C. The mice were then allowed to stabilize prior to hemodynamic measurements. A high-fidelity catheter tip micromanometer (Mikro-tip1.4F, SPR-671; Millar Instruments, Houston TX, USA) was inserted through the right carotid artery into the left ventricular cavity. Ventricular pressure was measured. Maximal positive and negative pressure development (+dP/dt and −dP/dt) and heart rate were determined on a beat-to-beat basis. The heart was then stimulated by an i.v. ramp-infusion of dobutamine (Sigma-Aldrich) using a micro-injection pump (Model 200 Series, KdScientific, Boston, Mass., USA).
One-half of the hearts of the mice was embedded in paraffin and cut in 4 μm sections. The paraffin sections were rehydrated and washed in PBS. One section was stained with AZAN, allowing an accurate determination of the infarct size. To visualize the myofibroblasts in the infarct area, the sections were incubated with an antibody directed against a-smooth muscle actin (Sigma-Aldrich), followed by incubation with the peroxidase-conjugated secondary antibody (Vector laboratories). Nuclei were visualized by hematoxylin. Photos were taken with a Leica (CTR500, 63x/0.85) camera and analyzed with the Quantimet program (QWin/QGo). An examiner blinded to the groups of the animals obtained all measurements. For the experiments with Rhodamine-labeled UM206, frozen sections (4 μm) of mouse kidney and small intestine were used.

[7] = tested on: kidney; test: qPCR of Wnt target genes in kidney after long-term UM206 administration; format: in vivo, mice; set-up: key to Rel. exp. Col I / Rel. exp. DDK 2 / Rel. exp. DDK 3 / Rel. exp. Twist: expression normalized to cyclophilin housekeeping gene; key to Rel. exp. α-SMA / Rel. exp. DDK 1 / Rel. exp. α-actin / Rel. exp. LEF / Rel. exp. FN: relative expression, cyclophilin as housekeeping gene
Excerpt: RNA was isolated using the Trizol method (Invitrogen). For the RT-PCR, the RNA was transcribed to cDNA with iscript™ cDNA synthesis kit (Bio-Rad, Hercules Calif., USA), Syber green (Eurogentec, Ghent, Belgium) was used for the detection of cDNA levels and cyclophilin served as the house keeping gene. In Supplementary methods panel 5, the primer sequences are shown.

[8] = five weeks treatment, vs saline

CSCC[C@H](NC(=O)CNC(=O)[C@H](CCC(=O)O)NC(=O)[C@H](CO)NC(=O)[C@@H](NC(=O)[C@H](CCCCN)NC(=O)[C@H](CC(N)=O)NC(=O)[C@H](CS)NC(C)=O)[C@@H](C)O)C(=O)N[C@@H](CC(=O)O)C(=O)NCC(=O)N[C@@H](CS)C(=O)N[C@@H](CCC(=O)O)C(=O)N[C@@H](CC(C)C)C(N)=O [UM206, Ac-Cys-Asn-Lys-Thr-Ser-Glu-Gly-Met-Asp-Gly-Cys-Glu-Leu-NH2] (Ac-CNKTSEGMDGCEL-NH2)
Effect on Wnt3a-induced luciferase activity, frizzled-5 [1]: no effect | Antagonizing activation of mouse Fzd-1 by Wnt3a [2]: fully effective | Antagonizing activation of mouse Fzd-2 by Wnt3a [3]: fully effective | Blocking of canonical Wnt/Fzd-1/2 signaling in two other cell lines [4]: selectively block | half-life [5]: around 90 minutes | tangents on the pressure time curve (dP/dt) ([6]; Millar catheter in left ventricle, vs saline): significantly steeper | change of ejection fraction (echocardiography) ([6]; UM206-treated vs saline): doubling | reduction in end diastolic volume of the left ventricle ([6]; UM206-treated vs saline): 40% | AoD ([6]; echocardiography, AVG): 0.18 cm | EDV_L ([6]; echocardiography, AVG): 0.132 cm^3 | EF_L ([6]; echocardiography, AVG): 31.4% | ESV_L ([6]; echocardiography, AVG): 0.090 cm^3 | FS ([6]; echocardiography, AVG): 13.20% | IVS anterior ([6]; echocardiography, AVG): 8.10% | IVSd anterior wall ([6]; echocardiography, AVG): 0.07 cm | IVSd posterior wall ([6]; echocardiography, AVG): 0.09 cm | IVSs anterior wall ([6]; echocardiography, AVG): 0.07 cm | IVSs posterior wall ([6]; echocardiography, AVG): 0.14 cm | LVAs ([6]; echocardiography, AVG): 0.30 cm^2 | LVIDd ([6]; echocardiography, AVG): 0.59 cm | LVIDs ([6]; echocardiography, AVG): 0.52 cm | SV_L ([6]; echocardiography, AVG): 0.041 cm^3 | LVLd ([6]; echocardiography, AVG, first listing (r8)): 0.91 cm | LVLs ([6]; echocardiography, AVG, first listing (r10)): 0.86 cm | LVLd ([6]; echocardiography, AVG, second listing (r12)): 0.95 cm | LVLs ([6]; echocardiography, AVG, second listing (r13)): 0.89 cm | LVAd ([6]; echocardiography, mice post-MI, AVG): 0.38 cm^2 | mortality / survival after MI ([6]; five weeks after MI, 6 microgram/kg/day minipump, saline 35% died): not a single mouse had died; also recorded: completely prevented the mortality | wet lung weight of surviving saline-treated mice higher than in UM206-treated mice ([6]; five weeks post-MI): 40% | blood vessels in the infarct area [6, 8]: increased amount of blood vessels | collagen levels in the infarct area [6, 8]: reduced collagen levels | a-SMA levels in infarcts (qPCR, Western blotting) ([6]; five-week-old infarcts, vs saline): significantly higher | Diastolic pressure ([6]; hemodynamic measurements, AVG): 1.27 mmHg | Left ventricular pressure ([6]; hemodynamic measurements, AVG): 10.14 mmHg | Maximum negative slope ([6]; hemodynamic measurements, AVG): −2542.08 mmHg/sec | Maximum negative slope/pressure ([6]; hemodynamic measurements, AVG): 32.84 s⁻¹ | Maximum positive slope ([6]; hemodynamic measurements, AVG): 5343.84 mmHg/sec | Maximum positive slope/pressure ([6]; hemodynamic measurements, AVG): 69.13 s⁻¹ | Pressure of negative slope ([6]; hemodynamic measurements, AVG): −9.44 mmHg | Pressure of positive slope ([6]; hemodynamic measurements, AVG): 17.78 mmHg | Systolic pressure ([6]; hemodynamic measurements, AVG): 27.93 mmHg | Heart rate ([6]; hemodynamic measurements, mean of 26 animals): 106.32 beats/min | amount of myofibroblasts ([6]; in vivo model of myocardial infarction, in comparison to 4%): 20% | adverse effects of chronic administration ([6]; mouse, in vivo): did not observe any adverse effects | effects on other organs known to contain Fzd-2, including kidney and small intestine ([6]; mouse, in vivo): did not observe any effects | myofibroblast numbers in the infarct area relative to saline-treated mice ([6]; two weeks post-MI): more than four-fold; also recorded: four-fold | infarct area size ([6]; vs saline-treated mice, 2 and 5 weeks after MI): significantly smaller | thickness of the infarct area ([6]; vs saline, both time points): significantly thicker | influence on gene expression in the kidney ([7]; UM206 for five weeks): These data indicate that UM206 had no influence on gene expression in the kidney. | Rel. exp. Col I ([7]; kidney): 1.39 | Rel. exp. DDK 1 ([7]; kidney): 1.87 | Rel. exp. DDK 2 ([7]; kidney): 1.44 | Rel. exp. DDK 3 ([7]; kidney): 0.87 | Rel. exp. FN ([7]; kidney): 1.66 | Rel. exp. LEF ([7]; kidney): 1.70 | Rel. exp. Twist ([7]; kidney): 1.49 | Rel. exp. α-SMA ([7]; kidney): 1.21 | Rel. exp. α-actin ([7]; kidney): 1.06
